Data on three compounds can be found in ChEMBL document CHEMBL1123994, “Excitatory amino acid neurotransmission” (J Med Chem, 1988).

Peptide text beside a SMILES is read from it.

As a reminder, the pKa is the negative logarithm of the acid dissociation constant. As usually defined, the Ki is a measure of affinity in units of concentration, obtained from inhibition or displacement. Lower therefore signals tighter binding. In general, IC50 refers to the concentration at which inhibition is half-maximal. Read a high IC50 as a need for much substance.

The nature of data set [1]: Ionization constant was determined. It is filed as physicochemical.
Data set [2] in a line: Inhibition of Cl- dependent binding sites of AP4 receptor labeled with [3H]- glutamic acid.
Data set [3] is described as follows: Inhibition of specific brain peptidase.

Turning to `NC(CN1CC(=O)NC1=O)C(=O)O` (centres undefined), the pKa in data set [1] is 8.2.

Take `CC(=O)NC(CC(=O)O)C(=O)NC(CCC(=O)O)C(=O)O` (stereo not drawn) (Ac-Asp-Glu-OH; configuration not given here): the inhibitory constant (Ki) in data set [2] is 420 nM.

Consider `N[C@@H](Cn1oc(=O)[nH]c1=O)C(=O)O` [QUISQUALATE], for which, in data set [3], the concentration for half-maximal inhibition (IC50) stood at 480 nM. The pKa in data set [1] turned out to be 4.2.
